Article PMC10975012, “The Active Glucuronide Metabolite of the Brain Protectant IMM-H004 with Poor Blood–Brain Barrier Permeability Demonstrates a High Partition in the Rat Brain via Multiple Mechanisms” (Pharmaceutics, 2024)

Key:
[1] = In vitro metabolism in rat brain homogenate; type: in vitro ADME
Experimental: Rat brains were homogenized in chilled saline (1:3, w/v) on ice to obtain the brain homogenate. The incubation mixtures composed of the brain homogenate (2 mg protein/mL), alamethicin (50 μg/mg protein), IMM-H004 (10 μmol/L), and UDPGA (5 mmol/L) in a final volume of 0.2 mL of Tris-HCl buffer (50 mmol/L, pH 7.4) containing 5 mmol/L of MgCl2. Before initiating the reaction, the brain homogenate was preincubated with alamethicin on ice for 15 min. Subsequently, IMM-H004 and UDPGA were added to initiate the reaction. After incubating at 37 °C for 60 min, the reaction was quenched by adding two volumes of acetonitrile containing IS (0.1 μg/mL). On the other hand, IMM-H004G (1 μmol/L) was incubated with the brain homogenate (2 mg protein/mL) for up to 4 h. The concentrations of IMM-H004 and IMM-H004G were determined by LC-MS/MS.

[2] = In vivo metabolism of IMM-H004 in rat brain after intracerebroventricular injection; conditions: for detection in brain regions: 6–60 min after icv injection of IMM-H004 3.8 μg/kg
Experimental: The metabolism of IMM-H004 in the brain was investigated through the intracerebroventricular (icv) injection of IMM-H004 in rats, and the drug concentration in each brain region was analyzed. The rats were fixed on a benchmark stereotactic instrument (Leica Biosystems, Deer Park, IL, USA) under isoflurane anesthesia. Using a microinjector connected to a syringe pump, a 5 μL solution of IMM-H004 was dissolved in artificial cerebrospinal fluid (ACSF) and injected (3.8 μg/kg) into the lateral ventricle. The injection coordinates were as follows: medial/lateral = 1.5 mm; anterior/posterior = −0.8 mm; dorsal/ventral = −4 mm. Animals were sacrificed at 6, 15, 30, 45, and 60 min after drug administration. The brains were collected and dissected on ice into the following regions: the cerebellum, brainstem, hypothalamus, hippocampus, midbrain, striatum, and cortex. The subsequent procedure for processing tissue samples was the same as the procedure described in Section 2.3.1.

[3] = Plasma protein binding, rapid equilibrium dialysis; type: in vitro ADME; conditions: rat, 0.5–10 μg/mL, RED, 37 °C, read-out: unbound fraction (fu) in rat plasma
Experimental: The rat plasma protein binding of IMM-H004 and IMM-H004G (0.5–10 μg/mL) was investigated using a rapid equilibrium dialysis (RED) assay. The RED plate inserts utilized in this assay contained a dialysis membrane with a molecular weight cut-off of 8 kDa (Thermo Fisher Scientific, Waltham, MA, USA). For the assay, aliquots of plasma (0.2 mL) and phosphate-buffered saline (0.35 mL) were added to the sample chamber and buffer chamber, respectively. The plate was then sealed and incubated at 37 °C, 200 rpm for 4 h. Following the dialysis period, the concentrations of IMM-H004 and IMM-H004G were determined using LC-MS/MS. The ratio of the drug concentration in the buffer to that in the plasma chamber was used to calculate the unbound fraction (fu) of the drugs.

OATP1B3 = target: T1, OATP1B3 (Homo sapiens, UniProt Q9NPD5); test: Uptake in MDCKⅡ-OATP1B3 cells; type: cell-based; conditions: MDCKⅡ-OATP1B3, 30, 60 µmol/L, 20 or 40 min
T1 construct: expressed in transfected cells; host or cells: MDCKII
T1 sequence (Q9NPD5 1-702): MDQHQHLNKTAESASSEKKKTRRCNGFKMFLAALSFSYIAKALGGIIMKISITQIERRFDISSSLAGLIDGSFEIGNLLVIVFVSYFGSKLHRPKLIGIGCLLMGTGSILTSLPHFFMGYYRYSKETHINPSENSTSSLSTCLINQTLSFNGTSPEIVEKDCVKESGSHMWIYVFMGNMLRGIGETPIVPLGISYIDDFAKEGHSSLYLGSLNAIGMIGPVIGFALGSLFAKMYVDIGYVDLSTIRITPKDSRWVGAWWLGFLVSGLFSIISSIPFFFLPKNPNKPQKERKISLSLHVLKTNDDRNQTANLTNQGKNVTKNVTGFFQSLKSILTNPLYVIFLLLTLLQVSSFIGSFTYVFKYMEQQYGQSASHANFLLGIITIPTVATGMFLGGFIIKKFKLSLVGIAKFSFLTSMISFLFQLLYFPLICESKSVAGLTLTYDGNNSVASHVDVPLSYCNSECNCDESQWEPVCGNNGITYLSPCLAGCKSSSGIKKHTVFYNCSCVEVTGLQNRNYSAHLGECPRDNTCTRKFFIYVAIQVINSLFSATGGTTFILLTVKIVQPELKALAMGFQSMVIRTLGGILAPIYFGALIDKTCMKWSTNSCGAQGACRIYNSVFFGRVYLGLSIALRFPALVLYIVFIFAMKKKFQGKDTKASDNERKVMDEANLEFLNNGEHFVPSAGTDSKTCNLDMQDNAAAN
Experimental: Figure S4 Uptake of IMM-H004G in MDCKⅡ-OATP1B1 and MDCKⅡ-OATP1B3 cells. (a)
RSV (rosuvastatin, 30 µmol/L) is used as a positive group in MDCKⅡ-OATP1B1 cells. (b)
E17βG (estradiol-17β-glucuronide, 5 µmol/L) is used as a positive group in
MDCKⅡ-OATP1B3 cells. (c) IMM-H004G (30, 60 µmol/L) was incubated with
MDCKⅡ-OATP1B1 and MDCKⅡ-OATP1B3 cells for 20 or 40 min. The OATP
pan-inhibitor CsA (cyclosporin A) is 10 µmol/L. n=3 for positive substrates, and n=2 for
IMM-H004G. ***p < 0.001, **p < 0.01, *p < 0.05 vs. control group. ns, not significant.
(1 picture or pasted object on this page, not shown here)

HEB cells = test: In vitro metabolism in human brain cells (HEB); type: in vitro ADME; conditions: IMM-H004 1–100 μmol/L, up to 5 h
Experimental: SH-SY5Y, HEB, and hCMEC/D3 cells were utilized to investigate the in vitro metabolism of IMM-H004 and IMM-H004G in the brain. SH-SY5Y and HEB cells were cultured routinely in Dulbecco’s modified Eagle’s medium (DMEM) containing 10% fetal bovine serum and a 100 U/mL penicillin–100 μg/mL streptomycin solution. hCMEC/D3 cells were seeded on collagen type I coated 24-well plates and cultured in EndoGRO™-MV complete medium following the manufacturer’s guidelines. The cells were incubated at 37 °C, with 5% CO2, and were maintained in a humidified environment. Once the confluence reached 70–80%, the cells were digested using a 0.25% trypsin–EDTA solution, centrifuged at 200× g for 5 min, and then resuspended in a fresh culture medium. For each experiment, after seeding and 24 h incubation, the cells were washed twice with a prewarmed culture medium, and then IMM-H004 or IMM-H004G (1–100 μmol/L) dissolved in the culture medium was added. Incubation was carried out at 37 °C for 5 h or 24 h. After incubation, the supernatants were collected. Subsequently, the cells were washed with cold HBSS three times and lysed in a RIPA lysis buffer (Beyotime Inc., Shanghai, China). The concentrations of IMM-H004 and IMM-H004G were determined by liquid chromatography with tandem mass spectrometry (LC-MS/MS).

| SMILES | stability of IMM-H004G (change in concentration) ([1]; 1 μmol/L, rat brain homogenate 2 mg/mL protein, 4 h) | detection in brain regions [2] | Kp ([2]; hypothalamus and plasma, icv or intrathecal, 3.8 ug/kg, after icv injection of IMM-H004 3.8 μg/kg, read-out: hypothalamus-to-plasma AUC ratio) | fraction unbound at 4 h [3] | uptake increase in OATP1B3-overexpressing cells compared to control cells (OATP1B3) | formation of IMM-H004G ([1]; IMM-H004 10 μmol/L, rat brain homogenate, 1 h) | production of IMM-H004G from IMM-H004 (HEB cells) |
| --- | --- | --- | --- | --- | --- | --- | --- |
| COc1cc(OC2OC(C(=O)O)C(O)C(O)C2O)cc2oc(=O)c(N3CCN(C)CC3)c(C)c12 (stereo not drawn) [IMM-H004G] | did not result in a reduction in its concentration | only detected at lower concentrations in the hypothalamus | 3.13 | 0.315 ± 0.008 | did not exceed a tenfold increase |  |  |
| COc1cc(O)cc2oc(=O)c(N3CCN(C)CC3)c(C)c12 [IMM-H004] |  | detected in all brain regions |  | 0.025 ± 0.002 |  | time-dependent | depended on both time and concentration |
